Reference: patent US20240124483A1, “Methods for the Treatment of Fibrotic Disease” (SHY Therapeutics, LLC, priority 2021, published 2024)
Where two headings read alike, the source gives them in different places.

Tests used:
KRas G12C mutant = KRas G12C mutant (Homo sapiens (Human), UniProt P01116, G12C); experiment: Ras GTP Binding Domain Inhibition Assay, KRas G12C mutant
Method: (§1) A Ras Superfamily Activity Assay (as disclosed in International Application No. PCT/US2018/038613, filed Jun. 20, 2018, which is incorporated by reference in its entirety) was used as a specific assay to evaluate compounds against the following for the following Ras Superfamily proteins: KRas wild type, KRas Q61H mutant, KRas G12C mutant, KRas G12D mutant, Rac-1, and Rho-A.
(§2) Buffer-I: • 25 mM Tris-HCl, pH 7.4 • 27 mM KCl • 137 mM NaCl • 1 mM MgCl2 • 1 mM DTT
(§3) Buffer-II: • 50 mM Tris-HCl, pH 7.0 • 1 mM MgCl2 • 1 mM DTT
(§4) The small GTPases proteins: KRas wild type. KRas Q61H mutant, KRas G12C mutant, KRas G12D mutants, Rac-1, and Rho-A were expressed as His-tagged proteins. In addition, the Guanosine nucleotide Exchange Factor (GEF) Sos protein (residues 556-1049) was expressed as a His-tagged protein. In cells, the guanine nucleotide exchange factor Sos protein promotes activation of Ras proteins by stimulating an exchange of GDP for GTP. The inclusion of Sos to the Ras GTP binding domain inhibition assay may be considered as an alternative representation of physiological cellular conditions for evaluating the inhibitory activity of some of the tested small molecules.
(§5) For the assay, all purified small GTPases proteins were diluted in Buffer-I or Buffer-II to a final concentration of 10-30 μg/mL. 200 μL of each diluted protein was added to a nickel-coated 96-well plate and incubated overnight at 4° C. Then the protein solution was discarded and 200 μL of Buffer-I or Buffer-II was added to each well in the presence of 1% DMSO. Compounds to be tested were added to the protein-coated wells at final concentration of 20 μM, and incubated for 3 hours at room temperature with and without 10-30 μg/mL of Sos added to the final hour of the incubation. When performing IC50 measurements a serial dilution of all tested concentrations was added. Then Cy3-GTP or Cy5-GTP was added to each well to a final concentration of 100 nM. The labeled GTP was incubated for 45 minutes at room temperature. Following GTP incubation, wells were washed 3× in Buffer-I or Buffer-II and 200 μL of Buffer-I or Buffer-II was added to each well. Following washes, the amount of bound labeled-GTP was measured using a SpectraMax M3 (Molecular Devices).

KRas wild type = KRas wild type (Homo sapiens (Human), UniProt P01116); experiment: Ras GTP Binding Domain Inhibition Assay, KRas wild type
Method: as §1, §2, §3, §4, §5

Rho-A = Rho-A (Homo sapiens (Human), UniProt P61586); experiment: Ras GTP Binding Domain Inhibition Assay, Rho-A
Method: as §1, §2, §3, §4, §5

KRas G12D mutant = KRas G12D mutant (Homo sapiens (Human), UniProt P01116, G12D); experiment: Ras GTP Binding Domain Inhibition Assay, KRas G12D mutant; settings: for inhibition at 20 µM: Table 7; for KRas G12D mutant + SOS: % inh. / KRas G12D mutant: % inh.: 20 uM, Table 8
Method: as §1, §2, §3, §4, §5

JNK = JNK Activation Assay in Panc-1 (western blot); assay type: cell-based, Human; set-up: key: Y = yes; N = No; settings: at 10 μM
Method: Cell lines: Human tumor-derived pancreatic cancer cell line Panc-1 and mouse muscle myoblast C2C12 were purchased from American Type Culture Collection and grown in complete DMEM-High Glucose, supplemented with penicillin (100 U/mL), streptomycin (100 μg/mL), and 10% heat-inactivated FBS at 37° C. in a humidified incubator with 5% CO2.
Method: Cells were plated at 350000 cells/well density in a 12-well plate, allowed 3 hours to adhere to the plate, then starved in the appropriate medium in the presence of 0.5% FBS overnight. The small molecules to be tested were added to the cells in the final concentration of 10 μM in the presence of 0.3% DMSO for 3 hours incubation at 37° C. For IC50 value determination, serial dilutions of compounds were added to cells under the same conditions. Next, Panc-1 cells were stimulated with 10 ng/ml TGF-b1 for 1 hour, and C2C12 cells were stimulated with 10 ng/ml TGF-b1 for 20 minutes (recombinant human TGF-b1, R&D Systems). After stimulation cells were lysed with lysis buffer containing 1% Triton X-100, EDTA, and Halt™ Protease & Phosphatase Inhibitor Cocktail (Thermo Scientific). Protein concentration was assessed by BCA protein assay (Thermo Scientific). Phosphorylation level of JNK was determined by western blot.
Western blot protocol: Equal amounts of protein (15-50 μg) were separated by SDS-PAGE and transferred to nitrocellulose membranes (Invitrogen by Thermo Fisher Scientific). The membrane was stained with Ponceau S Stain (Boston BioProducts) to verify uniform protein loading. Membranes were blocked with 10% milk and phosphorylation levels of Smad2, Smad3, INK and p38 were assessed by incubating overnight at 4° C. with the following antibody: Phospho-SAPK/JNK (Thr183/Tyr185), from Cell Signaling Technology. Then the membranes were incubated with HRP-conjugated secondary antibody (Jackson Immunoresearch, West Grove, PA). Bands were incubated in Amersham ECL Prime Western Blotting Detection Reagent (GE Healthcare) and visualized using the ChemiDoc MP imaging system (Bio-Rad).

[1] = + SOS, read-out: KRas G12C mutant + SOS: % inh.
[2] = without SOS, read-out: KRas G12C mutant: % inh.
[3] = + SOS, read-out: KRas wild type + SOS: % inh.
[4] = without SOS, read-out: KRas wild type: % inh.
[5] = without SOS, read-out: Rho-A: % inh.
[6] = + SOS, read-out: KRas G12D mutant + SOS: % inh.
[7] = without SOS, read-out: KRas G12D mutant: % inh.
[8] = + SOS, read-out: Rho-A + SOS: % inh.

KRas G12C mutant, sequence (P01116 other isoform, or with tags, fused parts or gaps G12C): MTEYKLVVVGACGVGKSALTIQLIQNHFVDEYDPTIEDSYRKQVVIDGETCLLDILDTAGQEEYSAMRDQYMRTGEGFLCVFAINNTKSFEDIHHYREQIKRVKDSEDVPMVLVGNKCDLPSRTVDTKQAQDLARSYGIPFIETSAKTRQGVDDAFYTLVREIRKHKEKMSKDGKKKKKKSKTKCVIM
KRas wild type, sequence (P01116 other isoform, or with tags, fused parts or gaps): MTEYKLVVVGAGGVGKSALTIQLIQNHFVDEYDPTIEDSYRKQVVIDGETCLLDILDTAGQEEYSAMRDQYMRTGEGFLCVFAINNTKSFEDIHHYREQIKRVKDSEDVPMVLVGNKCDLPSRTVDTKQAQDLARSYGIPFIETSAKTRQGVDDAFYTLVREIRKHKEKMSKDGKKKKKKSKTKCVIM
Rho-A, sequence (P61586 whole entry, species assumed, the tested form may be a part): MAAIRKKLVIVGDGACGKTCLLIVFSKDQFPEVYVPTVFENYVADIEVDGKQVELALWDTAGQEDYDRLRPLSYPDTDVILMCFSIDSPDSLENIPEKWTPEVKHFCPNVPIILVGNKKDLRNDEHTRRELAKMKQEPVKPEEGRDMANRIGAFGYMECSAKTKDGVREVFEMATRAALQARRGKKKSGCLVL
KRas G12D mutant, sequence (P01116 other isoform, or with tags, fused parts or gaps G12D): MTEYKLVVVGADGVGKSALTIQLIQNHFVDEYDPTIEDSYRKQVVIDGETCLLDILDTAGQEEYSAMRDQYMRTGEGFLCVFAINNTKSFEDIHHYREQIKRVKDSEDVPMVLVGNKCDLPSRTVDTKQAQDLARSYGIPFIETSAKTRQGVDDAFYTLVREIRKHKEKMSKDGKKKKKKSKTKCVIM

SMILES	inhibition at 20 µM (KRas G12C mutant; [1]) [%]	inhibition at 20 µM (KRas G12C mutant; [2]) [%]	inhibition at 20 µM (KRas wild type; [3]) [%]	inhibition at 20 µM (KRas wild type; [4]) [%]	inhibition at 20 µM (Rho-A; [5]) [%]	inhibition at 20 µM (KRas G12D mutant; [6]) [%]	KRas G12D mutant + SOS: % inh. (KRas G12D mutant; + SOS)	inhibition at 20 µM (KRas G12D mutant; [7]) [%]	KRas G12D mutant: % inh. (KRas G12D mutant; without SOS)	Activation of JNK in PANC-1 (JNK)	inhibition at 20 µM (Rho-A; [8]) [%]
COc1cc(Cn2c(-c3nccn3C)nc3sc(-c4ccn(C(C)C)n4)c(C)c3c2=O)ncn1 [Compound 35, 6-(1-Isopropyl-1H-pyrazol-3-yl)-3-((6-methoxypyrimidin-4-yl)methyl)-5-methyl-2-(1-methyl-1H-imidazol-2-yl)thieno[2,3-d]pyrimidin-4(3H)-one]	1 to 25	0	1 to 25	1 to 25	0	0	0 (0 = 0% inhibition)	1 to 25	A (A = 1-25% inhibition)	N	–
COc1cccc(-c2sc3nc(-c4nccn4C)nc(N[C@@H]4CC[C@@H](OC)C4)c3c2C)c1F (racemic) [Compound 43, rac-6-(2-Fluoro-3-methoxyphenyl)-N-((1R,3R)-3-methoxycyclopentyl)-5-methyl-2-(1-methyl-1H-imidazol-2-yl)thieno[2,3-d]pyrimidin-4-amine]	76 to 100	26 to 45	76 to 100	26 to 45	26 to 45	76 to 100	D (D = 76-100% inhibition)	1 to 25	A (A = 1-25% inhibition)	Y	–
COC1CCN(c2nc(-c3nccn3C)nc3sc(-c4ccn(C)n4)c(-c4ccccc4)c23)CC1 [Compound 6, 4-(4-Methoxypiperidin-1-yl)-2-(1-methyl-1H-imidazol-2-yl)-6-(1-methyl-1H-pyrazol-3-yl)-5-phenylthieno[2,3-d]pyrimidine]	46 to 75	26 to 45	26 to 45	0	0	26 to 45	B (B = 26-45% inhibition)	26 to 45	B (B = 26-45% inhibition)	Y	0
CO[C@H]1C[C@H](CNc2nc(-c3nccn3C)nc3sc(-c4ccn(C(C)C)n4)c(C)c23)C1 [Compound 16, 6-(1-Isopropyl-1H-pyrazol-3-yl)-N-(((1r,3r)-3-methoxycyclobutyl)methyl)-5-methyl-2-(1-methyl-1H-imidazol-2-yl)thieno[2,3-d]pyrimidin-4-amine]	46 to 75	46 to 75	46 to 75	76 to 100	46 to 75	46 to 75	C (C = 46-75% inhibition)	26 to 45	B (B = 26-45% inhibition)	Y	–
COCCOCCNc1nc(-c2nccn2C)nc2sc(-c3ccn(C(C)C)n3)c(C)c12 [Compound 21, 6-(1-Isopropyl-1H-pyrazol-3-yl)-N-(2-(2-methoxyethoxy)ethyl)-5-methyl-2-(1-methyl-1H-imidazol-2-yl)thieno[2,3-d]pyrimidin-4-amine]	76 to 100	46 to 75	76 to 100	76 to 100	76 to 100	76 to 100	D (D = 76-100% inhibition)	76 to 100	D (D = 76-100% inhibition)	Y	–
COCCNc1nc(-c2nccn2C)nc2sc(-c3cccc(OC)c3Cl)c(-c3ccc(OC)cc3)c12 [Compound 7, 6-(2-Chloro-3-methoxyphenyl)-N-(2-methoxyethyl)-5-(4-methoxyphenyl)-2-(1-methyl-1H-imidazol-2-yl)thieno[2,3-d]pyrimidin-4-amine]	76 to 100	26 to 45	76 to 100	46 to 75	26 to 45	26 to 45	B (B = 26-45% inhibition)	26 to 45	B (B = 26-45% inhibition)	Y	46 to 75
CO[C@@H]1CC[C@H](Nc2nc(-c3nccn3C)nc3sc(-c4ccn(C(C)C)n4)c(-c4ccccc4)c23)C1 (single isomer, unassigned) [Compound 11]	76 to 100	46 to 75	76 to 100	46 to 75	26 to 45	46 to 75	C (C = 46-75% inhibition)	46 to 75	C (C = 46-75% inhibition)	Y	26 to 45
COCCNc1nc(-c2nccn2C)nc2sc(-c3ccccc3)c(-c3ccccc3)c12 [Compound 1, N-(2-Methoxyethyl)-2-(1-methyl-1H-imidazol-2-yl)-5,6-diphenylthieno[2,3-d]pyrimidin-4-amine]	–	46 to 75	1 to 25	1 to 25	46 to 75	1 to 25	A (A = 1-25% inhibition)	76 to 100	D (D = 76-100% inhibition)	Y	–
